Measurements: patent US11634447B2 (priority 2012, dated 2023)
pIC50: −log10 of the molar value.

Test system: bacterial strain LF82 binding to the glycoprotein BSA-(Mannose)3
Assay: Bacterial Binding Assay (BBA)
Assay type: cell-based, Escherichia coli
Settings: read-out: Bacterial Binding Assay IC50, LF82/Luciferase strain binding to BSA-(Man)3 coated plates, luminescence
Description: The purpose of the Bacterial Binding Assay (BBA) is to determine the inhibition activity of
selective FimH antagonists on the bacterial strain LF82 binding to the glycoprotein BSA-(Mannose)3.
Below is a list of the Materials used to run the BBA are described below. • 1. LB broth: Supplier: Gibco, #10855 • 2. D-PBS: Supplier: Wisent, #311-425-CL • 3. LB agar plates • 4. 96-well black plate (high binding): Supplier: Costar, #3925 • 5. TopSeal™-A adhesive sealing films; Supplier PerkinElmer, #6005185 • 6. Carbonate-bicarbonate buffer pH 9.6 tablets, Supplier: Medicago, #09-8922-24 • 7. Water, Supplier: Gibco, #15230-162 • 8. Bovine serum albumin (BSA): Supplier: Sigma, #A-7888 • 9. (Man)3-BSA (α1-3, α1-6 Mannotriose-BSA, 1 mg), V-Labs, #NGP1336, lot #HGDX37-169-1 • 10. Tween 20: Supplier: Sigma, #P9416 • 11. Bright-Glo Luciferase Assay System: Supplier: Promega, #E2610 • 12. LF82/Luciferase strain: Invasive ability of an Escherichia coli strain isolated from the ileal mucosa of a patient with Crohn ? disease. Boudeau J, Glasser A L, Masseret E, Joly B, Darfeuille-Michaud A, Infect Immun. 1999, 67(9), 4499-509
Solutions and buffers used to run the BBA are described below. • 1. 0.04M carbonate-bicarbonate buffer (coating buffer) • 2. 40 μg/mL BSA-(Man)3: Dissolve 1 mg of (Man)3-BSA in 25 mL of water. • 3. 4000 μg/mL BSA • 4. 40 μg/mL BSA • 5. 1 μg/mL BSA-(Man)3: 150 μL of 40 μg/mL BSA-(Man)3+5.85 mL of 40 μg/mL BSA • 6. 0.5 μg/mL BSA-(Man)3 in 0.02M carbonate-bicarbonate buffer. • 7. 20 μg/mL BSA in 0.02M carbonate-bicarbonate buffer • 8. Blocking buffer (2% BSA/DPBS): 1 g of BSA in 50 mL D-PBS • 9. 2× binding buffer (0.2% BSA/D-PBS): 5 mL of blocking buffer+45 mL D-PBS. • 10. Washing buffer (D-PBS/0.01% Tween 20): 10 μL of Tween 20 in 100 mL D-PBS. • 11. 1× Bright-Glo Luciferase substrate: Dilute 1:1 the Bright-Glo Luciferase Assay System with D-PBS The experimental protocol to run the BBA is described below.
Overnight culture of LF82/Luciferase strain: Into two Falcon 50 mL tubes, add 20 mL of LB+20 μL of 50 mg/mL Kanamycin and inoculate with a loop from glycerol stock of the LF82/Luciferase strain. Incubate overnight at 37° C. with no shaking.
Glycoprotein coating of 96-well plates: Add 100 μL/well of 0.5-2 μg/mL BSA-(Man)3. 20 μg/mL BSA is used as the control background. Seal plate using an adhesive sealing film and incubate overnight at room temperature. Wash the 96-well plate three times with 150 μL/well of D-PBS, add 170 μL/well of blocking solution and incubate 45 min (minimum) at room temperature.
Preparation of bacterial suspension: Mix the two cultures tubes (40 mL) and perform a 1:10 dilution in LB (900 μl LB+100 μl culture. Measure optical density (OD) of the bacterial cultures. OD1 ˜5×10^8 cells/mL. Centrifuge LF82 culture for 20 min at 3500 rpm at room temperature. Re-suspend bacterial pellet in D-PBS and centrifuge again for 20 min at 3500 rpm. Re-suspend bacterial pellet in D-PBS to obtain a bacterial concentration of 2×10^9 bacteria/mL. Dilute 1/10 in D-PBS to obtain a final bacterial concentration of 2×10^8 bacteria/mL (=107 bacteria/50 μL). Perform 1/10 serial dilutions in LB of each bacterial suspension, plate 10 μL of dilutions on LB agar plates (final dilutions of 10^−7) and incubate overnight at 37° C. and count CFUs to determine the actual bacteria density in the assay.
Bacterial binding assay: Add 147 μL 2× binding buffer to compound plate (containing 3 μL of compound). After blocking step is performed (at least 45 min), wash plates three times with 200 μL/well of D-PBS. With a 100 μL multichannel manual pipettor, add 50 µL/well of compound diluted in 2× binding buffer. With a 100 μL multichannel manual pipettor, add 50 μL/well of bacterial suspension. Agitate at slow speed for 1 min and incubate 40-75 min at room temperature. Wash 5 times with 150 μL/well of washing buffer and then once with D-PBS. Add 100 μL/well of 1× Bright-Glo Luciferase substrate. […]

In order of rising pIC50:
1. Cc1c(C)c(C#C[C@H]2O[C@H](CO)[C@@H](O)[C@H](O)[C@@H]2O)c(C)c(C)c1C#C[C@H]1O[C@H](CO)[C@@H](O)[C@H](O)[C@@H]1O [Compound 84, (2R,3S,4R,5S,6R)-2-(hydroxymethyl)-6-[2-[2,3,5,6-tetramethy1-4-[2-[(2R,3S,4R,5S,6R)-3,4,5-trihydroxy-6-(hydroxymethyl)tetrahydropyran-2-yl]ethynyl]phenyl]ethynyl]tetrahydropyran-3,4,5-triol]  6.50
2. OCc1cc(C#C[C@H]2O[C@H](CO)[C@@H](O)[C@H](O)[C@@H]2O)c(CO)cc1C#C[C@H]1O[C@H](CO)[C@@H](O)[C@H](O)[C@@H]1O [Compound 85, (2R,3S,4R,5S,6R)-2-[2-[2,5-bis(hydroxymethyl)-4-[2-[(2R,3S,4R,5S,6R)-3,4,5-trihydroxy-6-(hydroxymethyl)tetrahydropyran-2-yl]ethynyl]phenyl]ethynyl]-6-(hydroxymethyl)tetrahydropyran-3,4,5-triol]  6.80
3. OC[C@H]1O[C@H](C#Cc2cc(F)c(C#C[C@H]3O[C@H](CO)[C@@H](O)[C@H](O)[C@@H]3O)cc2F)[C@@H](O)[C@@H](O)[C@@H]1O [Compound 88, (2R,3S,4R,5S,6R)-2-[2-[2,5-difluoro-4-[2-[(2R,3S,4R,5S,6R)-3,4,5-trihydroxy-6-(hydroxymethyl)tetrahydropyran-2-yl]ethynyl]phenyl]ethynyl]-6-(hydroxymethyl)tetrahydropyran-3,4,5-triol]  6.88
4. OC[C@H]1O[C@H](C#Cc2cc(F)c(C#C[C@H]3O[C@H](CO)[C@@H](O)[C@H](O)[C@@H]3O)c(F)c2)[C@@H](O)[C@@H](O)[C@@H]1O [Compound 93, (2R,3S,4R,5S,6R)-2-[2-[3,5-difluoro-4-[2-[(2R,3S,4R,5S,6R)-3,4,5-trihydroxy-6-(hydroxymethyl)tetrahydropyran-2-yl]ethynyl]phenyl]ethynyl]-6-(hydroxymethyl)tetrahydropyran-3,4,5-triol]  7.06
5. COCc1cc(C#C[C@H]2O[C@H](CO)[C@@H](O)[C@H](O)[C@@H]2O)c(COC)cc1C#C[C@H]1O[C@H](CO)[C@@H](O)[C@H](O)[C@@H]1O [Compound 89, (2R,3S,4R,5S,6R)-2-[2-[2,5-bis(methoxymethyl)-4-[2-[(2R,3S,4R,5S,6R)-3,4,5-trihydroxy-6-(hydroxymethyl)tetrahydropyran-2-yl]ethynyl]phenyl]ethynyl]-6-(hydroxymethyl)tetrahydropyran-3,4,5-triol]  7.09
6. COc1cc(C#C[C@H]2O[C@H](CO)[C@@H](O)[C@H](O)[C@@H]2O)c(OC)cc1C#C[C@H]1O[C@H](CO)[C@@H](O)[C@H](O)[C@@H]1O [Compound 96, (2R,3S,4R,5S,6R)-2-[2-[2,5-dimethoxy-4-[2-[(2R,3S,4R,5S,6R)-3,4,5-trihydroxy-6-(hydroxymethyl)tetrahydropyran-2-yl]ethynyl]phenyl]ethynyl]-6-(hydroxymethyl)tetrahydropyran-3,4,5-triol]  7.18
7. OC[C@H]1O[C@H](C#Cc2ccc(C#C[C@H]3O[C@H](CO)[C@@H](O)[C@H](O)[C@@H]3O)c(C(F)(F)F)c2)[C@@H](O)[C@@H](O)[C@@H]1O [Compound 91, (2R,3S,4R,5S,6R)-2-(hydroxymethyl)-6-[2-[3-(trifluoromethyl)-4-[2-[(2R,3S,4R,5S,6R)-3,4,5-trihydroxy-6-(hydroxymethyl)tetrahydropyran-2-yl]ethynyl]phenyl]ethynyl]tetrahydropyran-3,4,5-triol]  7.24
8. OCc1cc(C#C[C@H]2O[C@H](CO)[C@@H](O)[C@H](O)[C@@H]2O)ccc1C#C[C@H]1O[C@H](CO)[C@@H](O)[C@H](O)[C@@H]1O [Compound 95, (2R,3S,4R,5S,6R)-2-(hydroxymethyl)-6-[2-[3-(hydroxymethyl)-4-[2-[(2R,3S,4R,5S,6R)-3,4,5-trihydroxy-6-(hydroxymethyl)tetrahydropyran-2-yl]ethynyl]phenyl]ethynyl]tetrahydropyran-3,4,5-triol]  7.42
9. Cc1cc(C#C[C@H]2O[C@H](CO)[C@@H](O)[C@H](O)[C@@H]2O)c(Cl)cc1C#C[C@H]1O[C@H](CO)[C@@H](O)[C@H](O)[C@@H]1O [Compound 90, (2R,3S,4R,5S,6R)-2-[2-[2-chloro-5-methy1-4-[2-[(2R,3S,4R,5S,6R)-3,4,5-trihydroxy-6-(hydroxymethyl)tetrahydropyran-2-yl]ethynyl]phenyl]ethynyl]-6-(hydroxymethyl)tetrahydropyran-3,4,5-triol]  7.44
10. OC[C@H]1O[C@H](C#Cc2ccc(C#C[C@H]3O[C@H](CO)[C@@H](O)[C@H](O)[C@@H]3O)c(OC(F)F)c2)[C@@H](O)[C@@H](O)[C@@H]1O [Compound 92, (2R,3S,4R,5S,6R)-2-[2-[3-(difluoromethoxy)-4-[2-[(2R,3S,4R,5S,6R)-3,4,5-trihydroxy-6-(hydroxymethyl)tetrahydropyran-2-yl]ethynyl]phenyl]ethynyl]-6-(hydroxymethyl)tetrahydropyran-3,4,5-triol]  7.44
11. Cc1cc(C#C[C@H]2O[C@H](CO)[C@@H](O)[C@H](O)[C@@H]2O)c(C)cc1C#C[C@H]1O[C@H](CO)[C@@H](O)[C@H](O)[C@@H]1O [Compound 97, (2R,3S,4R,5S,6R)-2-[2-[2,5-dimethy1-4-[2-[(2R,3S,4R,5S,6R)-3,4,5-trihydroxy-6-(hydroxymethyl)tetrahydropyran-2-yl]ethynyl]phenyl]ethynyl]-6-(hydroxymethyl)tetrahydropyran-3,4,5-triol]  7.62
12. CCc1cc(C#C[C@H]2O[C@H](CO)[C@@H](O)[C@H](O)[C@@H]2O)c(CC)cc1C#C[C@H]1O[C@H](CO)[C@@H](O)[C@H](O)[C@@H]1O [Compound 86, (2R,3S,4R,5S,6R)-2-[2-[2,5-diethyl-4-[2-[(2R,3S,4R,5S,6R)-3,4,5-trihydroxy-6-(hydroxymethyl)tetrahydropyran-2-yl]ethynyl]phenyl]ethynyl]-6-(hydroxymethyl)tetrahydropyran-3,4,5-triol]  7.66
13. OCCc1cc(C#C[C@H]2O[C@H](CO)[C@@H](O)[C@H](O)[C@@H]2O)ccc1C#C[C@H]1O[C@H](CO)[C@@H](O)[C@H](O)[C@@H]1O [Compound 94, (2R,3S,4R,5S,6R)-2-[2-[3-(2-hydroxyethyl)-4-[2-[(2R,3S,4R,5S,6R)-3,4,5-trihydroxy-6-(hydroxymethyl)tetrahydropyran-2-yl]ethynyl]phenyl]ethynyl]-6-(hydroxymethyl)tetrahydropyran-3,4,5-triol]  7.70
14. OC[C@H]1O[C@H](C#Cc2ccc(C#C[C@H]3O[C@H](CO)[C@@H](O)[C@H](O)[C@@H]3O)c(OC(F)(F)F)c2)[C@@H](O)[C@@H](O)[C@@H]1O [Compound 87, (2R,3S,4R,5S,6R)-2-(hydroxymethyl)-6-[2-[3-(trifluoromethoxy)-4-[2-[(2R,3S,4R,5S,6R)-3,4,5-trihydroxy-6-(hydroxymethyl)tetrahydropyran-2-yl]ethynyl]phenyl]ethynyl]tetrahydropyran-3,4,5-triol]  7.77
